Measurements reported in patent US10597388B2, “Pyridazinone herbicides” (FMC CORPORATION, priority 2014, dated 2020).

What was measured:
Assay in all cases: Test D controlled growth environment herbicide test, pre- and postemergence
Type in all cases: in vivo
[1] = tested on: barley, winter (winter barley, Hordeum vulgare)
In short: (§1)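 Species sown in silt loam and sprayed preemergence, or grown in peat-based medium to 2–18 cm (1- to 4-leaf stage) and sprayed postemergence, with compounds in non-phytotoxic solvent plus surfactant. Visual injury scored versus controls after 14–21 d in a controlled environment, 0 (no effect) to 100 (complete control).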

[2] = tested on: deadnettle (henbit deadnettle, Lamium amplexicaule)
In short: as §1

[3] = tested on: wheat, winter (winter wheat, Triticum aestivum)
In short: as §1

[4] = tested on: windgrass (Apera spica-venti)
In short: as §1

[5] = tested on: bromegrass, downy (downy bromegrass, Bromus tectorum)
In short: as §1

[6] = tested on: lambsquarters (Chenopodium album)
In short: as §1

[7] = tested on: chickweed (common chickweed, Stellaria media)
In short: as §1

[8] = tested on: galium (catchweed bedstraw, Galium aparine)
In short: as §1

kochia (Kochia scoparia) = tested on: kochia (Kochia scoparia)
In short: as §1

[9] = tested on: field poppy (Papaver rhoeas)
In short: as §1

[10] = tested on: mustard, wild (wild mustard, Sinapis arvensis)
In short: as §1

[11] = tested on: speedwell (bird's-eye speedwell, Veronica persica)
In short: as §1

[12] = tested on: Russian thistle (Salsola kali)
In short: as §1

[13] = Postemergence, 31 g ai/ha, scale 0 to 100 (0 no effect, 100 complete control)
[14] = Postemergence, 125 g ai/ha, visual rating on scale 0 (no effect) to 100 (complete control), 14 to 21 d
[15] = Postemergence, 250 g ai/ha, scale 0 to 100 (0 no effect, 100 complete control)
[16] = Preemergence, 62 g ai/ha, scale 0 to 100 (0 no effect, 100 complete control)
[17] = Preemergence, 125 g ai/ha, scale 0 to 100 (0 no effect, 100 complete control)
[18] = Preemergence, 250 g ai/ha, scale 0 to 100 (0 no effect, 100 complete control)
[19] = postemergence, 62 g ai/ha, scale 0 to 100, 0 no effect, 100 complete control

What does the source list for `Cc1cc(C)c2sc(C)c(-c3c(OC(=O)OC(C)C)c(C)nn(C)c3=O)c2c1` [Compound 67]?
Barley, Winter plant response rating [1, 13]: 0; Plant response rating, Barley, Winter [1, 14]: 5; Plant response rating, Barley, Winter [1, 15]: 10; Plant response rating (scale of 0 to 100), Barley, Winter ([1]; Preemergence, 31 g ai/ha): 0; Plant response rating, Barley, Winter [1, 16]: 0; Plant response rating, Barley, Winter [1, 17]: 0; Plant response rating, Barley, Winter [1, 18]: 0; Plant response rating, Barley, Winter [1, 19]: 0; Deadnettle plant response rating [2, 13]: 40; Plant response rating, Deadnettle [2, 14]: 40; Plant response rating, Deadnettle [2, 15]: 60; Plant response rating (scale of 0 to 100), Deadnettle ([2]; Preemergence, 31 g ai/ha): 15; Plant response rating, Deadnettle [2, 16]: 30; Plant response rating, Deadnettle [2, 17]: 55; Plant response rating, Deadnettle [2, 18]: 60; Plant response rating, Deadnettle [2, 19]: 30; Wheat, Winter plant response rating [3, 13]: 0; Plant response rating, Wheat, Winter [3, 14]: 0; Plant response rating, Wheat, Winter [3, 15]: 0; Plant response rating (scale of 0 to 100), Wheat, Winter ([3]; Preemergence, 31 g ai/ha): 0; Plant response rating, Wheat, Winter [3, 16]: 0; Plant response rating, Wheat, Winter [3, 17]: 0; Plant response rating, Wheat, Winter [3, 18]: 5; Plant response rating, Wheat, Winter [3, 19]: 0; Windgrass plant response rating [4, 13]: 85; Plant response rating, Windgrass [4, 14]: 90; Plant response rating, Windgrass [4, 15]: 90; Plant response rating (scale of 0 to 100), Windgrass ([4]; Preemergence, 31 g ai/ha): 30; Plant response rating, Windgrass [4, 16]: 75; Plant response rating, Windgrass [4, 17]: 80; Plant response rating, Windgrass [4, 18]: 95; Plant response rating, Windgrass [4, 19]: 85; Bromegrass, Downy plant response rating [5, 13]: 60; Plant response rating, Bromegrass, Downy [5, 14]: 65; Plant response rating, Bromegrass, Downy [5, 15]: 70; Plant response rating (scale of 0 to 100), Bromegrass, Downy ([5]; Preemergence, 31 g ai/ha): 25; Plant response rating, Bromegrass, Downy [5, 16]: 35; Plant response rating, Bromegrass, Downy [5, 17]: 35; Plant response rating, Bromegrass, Downy [5, 18]: 70; Plant response rating, Bromegrass, Downy [5, 19]: 60; Lambsquarters plant response rating [6, 13]: 90; Plant response rating, Lambsquarters [6, 14]: 100; Plant response rating, Lambsquarters [6, 15]: 100; Plant response rating (scale of 0 to 100), Lambsquarters ([6]; Preemergence, 31 g ai/ha): 95; Plant response rating, Lambsquarters [6, 16]: 100; Plant response rating, Lambsquarters [6, 17]: 100; Plant response rating, Lambsquarters [6, 18]: 100; Plant response rating, Lambsquarters [6, 19]: 100; Chickweed plant response rating [7, 13]: 85; Plant response rating, Chickweed [7, 14]: 100; Plant response rating, Chickweed [7, 15]: 100; Plant response rating (scale of 0 to 100), Chickweed ([7]; Preemergence, 31 g ai/ha): 100; Plant response rating, Chickweed [7, 16]: 100; Plant response rating, Chickweed [7, 17]: 100; Plant response rating, Chickweed [7, 18]: 100; Plant response rating, Chickweed [7, 19]: 100; Galium plant response rating [8, 13]: 90; Plant response rating, Galium [8, 14]: 100; Plant response rating, Galium [8, 15]: 100; Plant response rating (scale of 0 to 100), Galium ([8]; Preemergence, 31 g ai/ha): 0; Plant response rating, Galium [8, 16]: 10; Plant response rating, Galium [8, 17]: 35; Plant response rating, Galium [8, 18]: 70; Plant response rating, Galium [8, 19]: 100; Kochia plant response rating (kochia (Kochia scoparia); [13]): 10; Plant response rating, Kochia (kochia (Kochia scoparia); [14]): 40; Plant response rating, Kochia (kochia (Kochia scoparia); [15]): 50; Plant response rating (scale of 0 to 100), Kochia (kochia (Kochia scoparia); Preemergence, 31 g ai/ha): 0; Plant response rating, Kochia (kochia (Kochia scoparia); [16]): 0; Plant response rating, Kochia (kochia (Kochia scoparia); [17]): 0; Plant response rating, Kochia (kochia (Kochia scoparia); [18]): 0; Plant response rating, Kochia (kochia (Kochia scoparia); [19]): 35; Field Poppy plant response rating [9, 13]: 80; Plant response rating, Field Poppy [9, 14]: 100; Plant response rating, Field Poppy [9, 15]: 100; Plant response rating (scale of 0 to 100), Field Poppy ([9]; Preemergence, 31 g ai/ha): 100; Plant response rating, Field Poppy [9, 16]: 100; Plant response rating, Field Poppy [9, 17]: 100; Plant response rating, Field Poppy [9, 18]: 100; Plant response rating, Field Poppy [9, 19]: 100; Mustard, Wild plant response rating [10, 13]: 25; Plant response rating, Mustard, Wild [10, 14]: 40; Plant response rating, Mustard, Wild [10, 15]: 65; Plant response rating (scale of 0 to 100), Mustard, Wild ([10]; Preemergence, 31 g ai/ha): 0; Plant response rating, Mustard, Wild [10, 16]: 0; Plant response rating, Mustard, Wild [10, 17]: 0; Plant response rating, Mustard, Wild [10, 18]: 0; Plant response rating, Mustard, Wild [10, 19]: 35; Speedwell plant response rating [11, 13]: 70; Plant response rating, Speedwell [11, 14]: 75; Plant response rating, Speedwell [11, 15]: 100; Plant response rating (scale of 0 to 100), Speedwell ([11]; Preemergence, 31 g ai/ha): 80; Plant response rating, Speedwell [11, 16]: 75; Plant response rating, Speedwell [11, 17]: 100; Plant response rating, Speedwell [11, 18]: 100; Plant response rating, Speedwell [11, 19]: 75; Russian Thistle plant response rating [12, 13]: 55; Plant response rating, Russian Thistle [12, 14]: 75; Plant response rating, Russian Thistle [12, 15]: 85; Plant response rating (scale of 0 to 100), Russian Thistle ([12]; Preemergence, 31 g ai/ha): 0; Plant response rating, Russian Thistle [12, 16]: 0; Plant response rating, Russian Thistle [12, 17]: 0; Plant response rating, Russian Thistle [12, 18]: 25; Plant response rating, Russian Thistle [12, 19]: 60
